Test system: patients with documented CAD
Experiment: Plasma LDL levels in CAD patients on simvastatin therapy
Format: in vivo, human
Conditions: simvastatin 40 mg/day, after 4 months on therapy, 13 CAD patients, data not shown
Description: For all studies, patients were recruited and screened for coronary artery disease (CAD) according to the following criteria.
Study Population: Human subjects with active vascular disease were recruited for this aspect of the study. They were screened by a history and physical exam, measurements of lipid profile and routine blood chemistries to include for example, CBC, TSH, free T4, ALT, AST, CPK, CRP, BUN, creatinine, glucose, hemoglobin A1c (if diabetic), urinalysis for protein and glucose. First preference was given to subjects with coronary artery disease. Exclusions included the use of lipid lowering or high dose angiotensin II—altering (or blocking) drugs within three months of the study. For the purposes of the following example, because of the limitations in finding subjects with coronary artery disease that are not on lipid lowering drugs or other vascular active drugs, subjects were also accepted with high coronary disease risk ratings as determined by Framingham Risk Assessment including both hard and soft risk predictors. […]
All lipid, lipoprotein, and apolipoprotein measurements were performed in the Emory Lipid Research Laboratory, a participant in the NHLBI/CDC Lipid Standardization Program. MDA proteins were measured in the Emory Lipid Research Laboratory using a commercially available kit. […]

SMILES: CCC(C)(C)C(=O)O[C@H]1C[C@@H](C)C=C2C=C[C@H](C)[C@H](CC[C@@H]3C[C@@H](O)CC(=O)O3)[C@H]21 [simvastatin]
- LDL levels reduced by an average of: 32.1%

From patent publication US7749711B2, “Methods of assessing endothelial dysfunction using acute transient responses following fat administration” (priority 2003, dated 2010)
